Measured values published in ChEMBL document CHEMBL1201862, “PubChem BioAssay data set” (2004).
Calls of active or inactive are those of the source.

Columns and labels:
[1] = target: T1, Sentrin-specific protease 6 (Homo sapiens, UniProt Q9GZR1); type: functional;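 note: Luminescence-based dose-response confirmatory assay of SENP6 inhibition, following up an ultra-high-throughput screen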
T1 sequence (Q9GZR1 whole entry): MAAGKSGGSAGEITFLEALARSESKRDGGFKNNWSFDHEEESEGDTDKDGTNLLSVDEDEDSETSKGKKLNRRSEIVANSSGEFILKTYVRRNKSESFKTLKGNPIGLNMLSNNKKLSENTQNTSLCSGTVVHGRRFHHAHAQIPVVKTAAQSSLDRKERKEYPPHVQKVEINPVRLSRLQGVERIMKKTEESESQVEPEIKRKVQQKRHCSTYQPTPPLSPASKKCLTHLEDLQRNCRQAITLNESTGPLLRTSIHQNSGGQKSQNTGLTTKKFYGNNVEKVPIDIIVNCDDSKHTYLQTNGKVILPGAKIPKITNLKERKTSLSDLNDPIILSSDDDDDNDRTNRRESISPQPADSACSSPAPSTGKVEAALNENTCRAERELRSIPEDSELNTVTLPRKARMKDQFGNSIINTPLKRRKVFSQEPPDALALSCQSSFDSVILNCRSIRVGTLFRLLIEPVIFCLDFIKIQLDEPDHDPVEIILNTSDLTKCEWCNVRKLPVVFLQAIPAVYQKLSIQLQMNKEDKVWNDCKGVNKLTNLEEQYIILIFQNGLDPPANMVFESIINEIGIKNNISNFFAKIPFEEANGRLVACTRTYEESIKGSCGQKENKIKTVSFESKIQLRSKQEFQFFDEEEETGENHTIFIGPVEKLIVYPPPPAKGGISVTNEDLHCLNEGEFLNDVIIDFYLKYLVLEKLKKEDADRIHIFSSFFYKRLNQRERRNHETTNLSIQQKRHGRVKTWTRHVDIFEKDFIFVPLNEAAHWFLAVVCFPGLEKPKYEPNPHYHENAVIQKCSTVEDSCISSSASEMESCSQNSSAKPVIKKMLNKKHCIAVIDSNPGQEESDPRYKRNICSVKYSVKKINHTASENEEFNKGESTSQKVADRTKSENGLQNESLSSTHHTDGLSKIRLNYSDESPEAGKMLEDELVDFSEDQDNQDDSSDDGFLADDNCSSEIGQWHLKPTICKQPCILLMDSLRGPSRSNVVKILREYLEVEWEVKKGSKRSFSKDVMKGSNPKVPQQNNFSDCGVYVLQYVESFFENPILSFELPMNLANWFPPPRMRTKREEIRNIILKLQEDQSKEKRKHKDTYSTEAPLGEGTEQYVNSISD

Streptococcus = assay: Group A Streptococcus viability loss, dose response, counter-screen for streptokinase expression inhibitor project, luminescence, BacTiterGlo (AID 1915); type: functional, organism-based; details: read-out: EC50;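 note: potency for reduction of bacterial viability or growth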
Caspase-3 = target: T2, Caspase-3 (Homo sapiens, UniProt P42574); type: functional;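 note: Dose-response selectivity test against caspase-3 for candidate inhibitors of sentrin-specific proteases (SENPs)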
T2 sequence (P42574 whole entry): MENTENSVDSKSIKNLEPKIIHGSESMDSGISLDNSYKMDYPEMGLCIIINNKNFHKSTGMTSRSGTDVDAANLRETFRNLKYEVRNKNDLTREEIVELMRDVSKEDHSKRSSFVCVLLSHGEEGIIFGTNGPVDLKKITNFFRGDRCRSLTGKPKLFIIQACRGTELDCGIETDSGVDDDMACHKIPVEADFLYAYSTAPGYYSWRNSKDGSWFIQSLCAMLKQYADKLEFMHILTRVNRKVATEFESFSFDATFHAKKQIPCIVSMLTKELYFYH

[2] = target: Glycogen synthase kinase-3 alpha (Homo sapiens, UniProt P49840); type: functional;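 note: GSK3A result taken from a broad kinome-wide kinase panel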
Glycogen synthase kinase-3 alpha, sequence (P49840 whole entry): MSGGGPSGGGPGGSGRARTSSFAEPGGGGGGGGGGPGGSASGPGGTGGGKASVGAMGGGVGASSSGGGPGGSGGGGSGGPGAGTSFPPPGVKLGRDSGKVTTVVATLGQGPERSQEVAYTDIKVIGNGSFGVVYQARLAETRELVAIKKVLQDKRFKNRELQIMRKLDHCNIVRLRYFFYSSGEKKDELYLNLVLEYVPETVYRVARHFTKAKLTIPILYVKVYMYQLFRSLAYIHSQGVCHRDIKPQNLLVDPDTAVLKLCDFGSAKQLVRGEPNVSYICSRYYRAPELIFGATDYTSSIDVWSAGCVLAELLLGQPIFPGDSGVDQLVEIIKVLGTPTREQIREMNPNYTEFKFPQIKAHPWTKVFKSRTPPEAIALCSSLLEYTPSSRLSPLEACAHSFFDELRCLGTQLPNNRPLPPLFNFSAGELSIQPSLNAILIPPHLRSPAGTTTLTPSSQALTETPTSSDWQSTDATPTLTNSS

[3] = target: Serine/threonine-protein kinase TAO1 (Homo sapiens, UniProt Q7L7X3); type: functional
Serine/threonine-protein kinase TAO1, sequence (Q7L7X3 whole entry): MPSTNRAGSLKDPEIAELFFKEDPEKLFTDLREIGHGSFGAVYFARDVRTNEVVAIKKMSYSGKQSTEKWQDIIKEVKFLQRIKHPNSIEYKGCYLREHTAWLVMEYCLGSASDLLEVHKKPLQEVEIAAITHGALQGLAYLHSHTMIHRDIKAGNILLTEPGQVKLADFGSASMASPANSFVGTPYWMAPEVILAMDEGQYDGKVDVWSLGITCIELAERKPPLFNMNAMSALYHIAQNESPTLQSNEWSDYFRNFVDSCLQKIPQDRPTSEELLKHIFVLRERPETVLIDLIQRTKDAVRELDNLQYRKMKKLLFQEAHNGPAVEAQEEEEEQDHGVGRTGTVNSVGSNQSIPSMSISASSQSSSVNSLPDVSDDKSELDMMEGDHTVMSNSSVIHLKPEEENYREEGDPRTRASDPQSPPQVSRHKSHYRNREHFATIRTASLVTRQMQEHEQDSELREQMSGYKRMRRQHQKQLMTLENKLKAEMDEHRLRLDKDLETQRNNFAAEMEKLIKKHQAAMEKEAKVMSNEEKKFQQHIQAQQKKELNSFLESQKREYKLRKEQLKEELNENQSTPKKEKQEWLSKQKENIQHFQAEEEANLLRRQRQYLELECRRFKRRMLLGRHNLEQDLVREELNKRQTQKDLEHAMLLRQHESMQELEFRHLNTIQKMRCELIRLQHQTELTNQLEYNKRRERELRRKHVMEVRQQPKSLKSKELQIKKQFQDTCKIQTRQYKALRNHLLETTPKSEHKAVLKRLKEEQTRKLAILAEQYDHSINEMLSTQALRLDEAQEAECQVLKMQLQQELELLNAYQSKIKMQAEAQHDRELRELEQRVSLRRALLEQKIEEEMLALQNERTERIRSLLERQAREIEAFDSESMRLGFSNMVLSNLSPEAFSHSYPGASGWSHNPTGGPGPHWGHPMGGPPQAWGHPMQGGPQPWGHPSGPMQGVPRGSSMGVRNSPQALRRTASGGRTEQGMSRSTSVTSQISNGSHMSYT

[4] = target: High affinity nerve growth factor receptor (Homo sapiens, UniProt P04629); type: functional;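 note: NTRK1 tested as one member of a kinome-wide profiling panel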
High affinity nerve growth factor receptor, sequence (P04629 whole entry): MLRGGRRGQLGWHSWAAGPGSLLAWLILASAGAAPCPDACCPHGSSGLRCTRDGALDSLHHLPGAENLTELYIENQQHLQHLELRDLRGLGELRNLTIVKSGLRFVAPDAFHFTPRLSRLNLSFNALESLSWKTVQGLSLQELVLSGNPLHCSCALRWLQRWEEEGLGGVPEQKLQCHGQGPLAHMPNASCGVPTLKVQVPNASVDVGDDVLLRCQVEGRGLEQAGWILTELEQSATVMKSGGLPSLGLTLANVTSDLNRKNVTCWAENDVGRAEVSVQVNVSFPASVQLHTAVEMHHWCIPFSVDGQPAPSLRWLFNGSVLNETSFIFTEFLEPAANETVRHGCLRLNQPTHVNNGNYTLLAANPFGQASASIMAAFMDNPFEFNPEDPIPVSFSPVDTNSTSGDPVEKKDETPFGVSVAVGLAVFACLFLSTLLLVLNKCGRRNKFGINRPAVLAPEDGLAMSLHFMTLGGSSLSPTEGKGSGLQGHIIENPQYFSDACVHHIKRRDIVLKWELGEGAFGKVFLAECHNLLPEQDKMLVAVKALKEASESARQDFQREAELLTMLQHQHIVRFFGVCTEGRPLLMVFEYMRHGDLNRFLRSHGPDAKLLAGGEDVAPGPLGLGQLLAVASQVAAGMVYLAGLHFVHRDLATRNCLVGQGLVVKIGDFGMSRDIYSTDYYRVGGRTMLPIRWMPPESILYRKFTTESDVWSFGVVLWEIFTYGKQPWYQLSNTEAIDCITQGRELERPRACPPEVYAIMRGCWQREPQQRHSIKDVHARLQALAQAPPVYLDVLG

[5] = target: Macrophage colony-stimulating factor 1 receptor (Homo sapiens, UniProt P07333); type: functional;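 note: value comes from the Navigating the Kinome screening panel, CSF1R member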
Macrophage colony-stimulating factor 1 receptor, sequence (P07333 whole entry): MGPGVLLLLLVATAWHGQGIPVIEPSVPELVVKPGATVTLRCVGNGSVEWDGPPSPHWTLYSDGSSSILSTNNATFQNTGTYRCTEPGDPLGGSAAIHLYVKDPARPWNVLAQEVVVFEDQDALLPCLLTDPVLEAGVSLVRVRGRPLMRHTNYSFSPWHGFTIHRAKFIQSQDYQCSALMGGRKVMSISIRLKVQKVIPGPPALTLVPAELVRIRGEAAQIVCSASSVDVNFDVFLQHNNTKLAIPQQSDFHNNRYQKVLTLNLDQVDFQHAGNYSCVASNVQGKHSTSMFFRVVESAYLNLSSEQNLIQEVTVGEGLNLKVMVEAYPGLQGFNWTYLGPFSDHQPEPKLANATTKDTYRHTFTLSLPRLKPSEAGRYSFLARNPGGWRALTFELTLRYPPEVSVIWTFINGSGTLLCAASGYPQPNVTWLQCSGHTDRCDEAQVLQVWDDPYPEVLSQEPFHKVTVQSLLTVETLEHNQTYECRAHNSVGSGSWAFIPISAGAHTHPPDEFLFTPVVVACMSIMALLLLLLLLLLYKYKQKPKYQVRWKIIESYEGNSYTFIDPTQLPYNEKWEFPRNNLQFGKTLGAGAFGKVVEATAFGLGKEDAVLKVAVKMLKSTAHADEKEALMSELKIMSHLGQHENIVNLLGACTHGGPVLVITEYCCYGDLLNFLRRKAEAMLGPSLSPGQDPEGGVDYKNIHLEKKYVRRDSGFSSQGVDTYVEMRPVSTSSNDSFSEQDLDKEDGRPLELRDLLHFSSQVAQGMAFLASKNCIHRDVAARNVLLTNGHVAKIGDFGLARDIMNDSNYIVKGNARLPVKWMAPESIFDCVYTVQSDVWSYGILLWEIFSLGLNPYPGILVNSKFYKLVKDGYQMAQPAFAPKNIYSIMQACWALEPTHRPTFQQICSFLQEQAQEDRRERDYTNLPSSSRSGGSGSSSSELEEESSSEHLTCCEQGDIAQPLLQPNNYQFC

Aurora kinase A = target: T3, Aurora kinase A (Homo sapiens, UniProt O14965); type: functional;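 note: value from the Navigating the Kinome kinase panel profiling, panel entry STK6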
T3 sequence (O14965 whole entry): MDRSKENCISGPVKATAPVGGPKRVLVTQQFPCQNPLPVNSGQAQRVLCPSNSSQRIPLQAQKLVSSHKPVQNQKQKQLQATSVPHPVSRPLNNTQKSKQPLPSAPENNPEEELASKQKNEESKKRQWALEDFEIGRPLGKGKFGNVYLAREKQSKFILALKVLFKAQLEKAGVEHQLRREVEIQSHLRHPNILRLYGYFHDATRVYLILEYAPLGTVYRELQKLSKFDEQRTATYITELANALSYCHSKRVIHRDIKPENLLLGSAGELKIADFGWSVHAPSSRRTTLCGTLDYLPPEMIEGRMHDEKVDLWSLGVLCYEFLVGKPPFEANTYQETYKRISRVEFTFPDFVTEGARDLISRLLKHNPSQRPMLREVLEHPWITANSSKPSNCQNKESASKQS

[6] = target: Vascular endothelial growth factor receptor 1 (Homo sapiens, UniProt P17948); type: functional;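 note: measured within a kinome-wide profiling panel, FLT1 as the panel member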
[7] = target: BDNF/NT-3 growth factors receptor (Homo sapiens, UniProt Q16620); type: functional;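 note: NTRK2 measured as one member of a broad kinome-wide kinase profiling panel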
BDNF/NT-3 growth factors receptor, sequence (Q16620 whole entry): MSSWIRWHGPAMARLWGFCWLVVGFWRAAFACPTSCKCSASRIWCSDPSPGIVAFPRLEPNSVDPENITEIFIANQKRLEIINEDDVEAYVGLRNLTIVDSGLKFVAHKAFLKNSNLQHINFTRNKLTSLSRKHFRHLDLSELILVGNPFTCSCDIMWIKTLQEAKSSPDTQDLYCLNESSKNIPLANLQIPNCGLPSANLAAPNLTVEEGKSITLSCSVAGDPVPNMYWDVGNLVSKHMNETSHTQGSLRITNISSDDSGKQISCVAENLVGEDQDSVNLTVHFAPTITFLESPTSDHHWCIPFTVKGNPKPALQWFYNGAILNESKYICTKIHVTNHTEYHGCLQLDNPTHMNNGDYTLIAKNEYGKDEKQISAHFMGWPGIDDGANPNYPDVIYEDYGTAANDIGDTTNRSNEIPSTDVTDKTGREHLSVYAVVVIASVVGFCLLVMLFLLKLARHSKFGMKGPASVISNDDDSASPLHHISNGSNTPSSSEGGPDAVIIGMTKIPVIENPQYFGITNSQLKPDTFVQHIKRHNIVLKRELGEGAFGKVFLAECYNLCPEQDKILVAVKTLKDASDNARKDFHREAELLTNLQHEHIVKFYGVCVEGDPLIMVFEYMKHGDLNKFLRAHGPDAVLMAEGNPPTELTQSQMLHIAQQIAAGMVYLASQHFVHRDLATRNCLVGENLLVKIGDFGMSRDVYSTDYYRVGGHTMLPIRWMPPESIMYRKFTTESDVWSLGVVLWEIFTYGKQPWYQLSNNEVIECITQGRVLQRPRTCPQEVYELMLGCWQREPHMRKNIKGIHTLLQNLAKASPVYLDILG

Compound	IC50 [1]	EC50 (Streptococcus)	IC50 (Caspase-3)	Ki [2]	Ki [3]	Ki [4]	Ki [5]	Ki (Aurora kinase A)	Ki [6]	Ki [7]
Cc1cc(C)c[n+](C2=C([N-]S(=O)(=O)c3cccs3)C(=O)c3ccccc3C2=O)c1	15.1 µM (active)	9.57 µM (active)	81.9 µM (active)							
CCCCCCCCCCC[N+](C)(C)CC/C=C1/c2ccccc2Sc2ccc(Cl)cc21		7.23 µM (active)								
CCn1c(-c2nonc2N)nc2cncc(C(=O)N3CCC(N)C3)c21 (stereo not given)				398 nM (active)	> 6.31 µM (inactive)	> 3.16 µM (inactive)	> 2.51 µM (inactive)	> 1.58 µM (inactive)	> 3.98 µM (inactive)	> 3.98 µM (inactive)
Cc1[nH]nc2ccc(-c3cncc(OCC(N)Cc4c[nH]c5ccccc45)c3)cc12 (stereo not given)				126 nM (active)	> 10 µM (inactive)	> 2.51 µM (inactive)	> 2.51 µM (inactive)	> 1.58 µM (inactive)	> 0.398 µM (inactive)	> 5.01 µM (inactive)
COC(=O)c1ccccc1NC1=C/C(=N\S(=O)(=O)c2cccs2)c2ccccc2C1=O	1.86 µM (active)		68.4 µM (active)							
